We go through 16 molecules from patent US9617286B2, “Fungicide N-[(trisubstitutedsilyl)methyl]-carboxamide derivatives” (BAYER INTELLECTUAL PROPERTY GMBH, priority 2011, dated 2017).

The subject of data set [1] is Sphaerotheca fuliginea. As to the kind of experiment: In vivo preventive test on Sphaerotheca fuliginea (powdery mildew on cucurbits). To be noted: gherkin plants, preventive spray, 500 ppm of active ingredient, grading 12 days after contamination. How it is done:
Gherkin plants (“Vert petit de Paris” variety), sown in starter cups on a 50/50 peat soil-pozzolana substrate and grown at 24° C., are treated at the Z11 cotyledon stage by spraying with the active ingredient prepared as described above. Plants, used as controls, are treated with the mixture of acetone/tween/DMSO/water not containing the active material. After 24 hours, the plants are contaminated by spraying the cotyledons with an aqueous suspension of Sphaerotheca fuliginea spores (100 000 spores per mL). The spores are collected from infected plants. The contaminated gherkin plants are incubated at about 20° C. and at 70-80% relative humidity. Grading (% of efficacy) is carried out 12 days after the contamination, in comparison with the control plants.

The subject of data set [2] is Septoria tritici. Description: In vivo preventive test on Septoria tritici (wheat). As to conditions: preventive spray, 500 ppm of active ingredient, grading 24 days after contamination. The method, then:
Wheat plants (“Scipion” variety), sown in starter cups on a 50/50 peat soil pozzolana substrate and grown at 22° C., are treated at the 1 leaf stage (10 cm height) by spraying with the active ingredient prepared as described above. Plants, used as controls, are treated with the mixture of acetone/tween/DMSO/water not containing the active material. After 24 hours, the plants are contaminated by spraying the leaves with an aqueous suspension of cryopreserved Septoria tritici spores (500 000 spores per mL). The contaminated wheat plants are incubated for 72 hours at 18° C. and at 100% relative humidity, and then for 21 days at 90% relative humidity. Grading (% of efficacy) is carried out 24 days after the contamination, in comparison with the control plants.

Data set [3] deals with Puccinia recondita. As to the kind of experiment: In vivo preventive test on Puccinia recondita (brown rust on wheat). As to conditions: preventive spray, 500 ppm of active ingredient, grading 12 days after contamination. How it is done: Wheat plants (“Scipion” variety), sown in starter cups on a 50/50 peat soil pozzolana substrate and grown at 22° C., are treated at the 1 leaf stage (10 cm height) by spraying with the active ingredient prepared as described above. Plants, used as controls, are treated with the mixture of acetone/tween/DMSO/water not containing the active material. After 24 hours, the plants are contaminated by spraying the leaves with an aqueous suspension of Puccinia recondita spores (100 000 spores per mL). The spores are collected from an infected plant and are suspended in water containing 2.5 mL/L of Tween 80 at 10%. The contaminated wheat plants are incubated for 24 hours at 20° C. and at 100% relative humidity, and then for 10 days at 20° C. and at 70-80% relative humidity. Grading (% of efficacy) is carried out 12 days after the contamination, in comparison with the control plants.

For data set [4], the system named is Uromyces appendiculatus. As to the kind of experiment: In vivo preventive test on Uromyces appendiculatus (bean rust). To be noted: bean plants, preventive spray, 500 ppm of active ingredient, grading 11 days after contamination. The method, then: Bean plants (“Saxa” variety), sown in starter cups on a 50/50 peat soil pozzolana substrate and grown at 24° C., are treated at the 2 leaf stage (9 cm height) by spraying with the active ingredient prepared as described above. Plants, used as controls, are treated with the mixture of acetone/tween/DMSO/water not containing the active material. After 24 hours, the plants are contaminated by spraying the leaves with an aqueous suspension of Uromyces appendiculatus spores (150 000 spores per mL). The spores are collected from infected plants and are suspended in water containing 2.5 mL/L of Tween 80 at 10%. The contaminated bean plants are incubated for 24 hours at 20° C. and at 100% relative humidity, and then for 10 days at 20° C. and at 70-80% relative humidity. Grading (% of efficacy) is carried out 11 days after the contamination, in comparison with the control plants.

The nature of data set [5]: log P by HPLC on reversed-phase column (C 18), EEC Directive 79/831 Annex V.A8. To be noted: 40° C., 0.1% aqueous formic acid and acetonitrile, linear gradient 10% to 90% acetonitrile. The format is physicochemical. In short, it runs like this: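 Reversed-phase C18 HPLC at 40° C, 0.1% aqueous formic acid/acetonitrile gradient from 10% to 90% acetonitrile. log P derived from retention times by linear interpolation between unbranched alkan-2-ones (3–16 carbons) of known log P.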

Data set [6] has as its system Pyrenophora teres. Description: In vivo preventive test on Pyrenophora teres (barley). As to conditions: preventive spray (DMF/alkylaryl polyglycol ether), 500 ppm of active ingredient, evaluated 7-9 days after inoculation. The method, then:
(§1) Solvent: 49 parts by weight of N,N-dimethylformamide Emulsifier: 1 part by weight of alkylaryl polyglycol ether To produce a suitable preparation of active compound, 1 part by weight of active compound is mixed with the stated amounts of solvent and emulsifier, and the concentrate is diluted with water to the desired concentration. To test for preventive activity, young plants are sprayed with the preparation of active compound at the stated rate of application. One day after this treatment, the plants are inoculated with an aqueous spore suspension of Pyrenophora teres. The plants remain for 48 hours in an incubation cabinet at 22° C. and a relative atmospheric humidity of 100%. Then the plants are placed in a greenhouse at a temperature of approximately 20° C. and a relative atmospheric humidity of approximately 80%.

Data set [7] deals with Alternaria brassicae. Description: In vivo preventive test on Alternaria brassicae (leaf spot on radish). As to conditions: preventive spray, 500 ppm of active ingredient, grading 6 days after contamination. How it is done:
Radish plants (“Pernod Clair” variety), sown in starter cups on a 50/50 peat soil pozzolana substrate and grown at 17° C., are treated at the cotyledon stage by spraying with the active ingredient prepared as described above. Plants, used as controls, are treated with the mixture of acetone/tween/DMSO/water not containing the active material. After 24 hours, the plants are contaminated by spraying the cotyledons with an aqueous suspension of Alternaria brassicae spores (50 000 spores per mL). The spores are collected from a 15-day-old culture. The contaminated radish plants are incubated at 20° C. and at 100% relative humidity. Grading (% of efficacy) is carried out 6 days after the contamination, in comparison with the control plants.

Data set [8] has as its system Botrytis cinerea. Description: In vivo preventive test on Botrytis cinerea (cucumber). As to conditions: preventive spray (DMF/alkylaryl polyglycol ether), 500 ppm of active ingredient, evaluated 5-6 days after inoculation. How it is done:
(§2) Solvent: 49 parts by weight of N,N-dimethylformamide Emulsifier: 1 part by weight of alkylaryl polyglycol ether To produce a suitable preparation of active compound, 1 part by weight of active compound is mixed with the stated amounts of solvent and emulsifier, and the concentrate is diluted with water to the desired concentration. To test for preventive activity, young plants are sprayed with the preparation of active compound at the stated rate of application. One day after this treatment, the plants are inoculated with an aqueous spore suspension of Botrytis cinerea. The plants remain for two days in an incubation cabinet at approximately 22° C. and a relative atmospheric humidity of 100%. Then the plants are placed in an incubation cabinet at approximately 14° C. and a relative atmospheric humidity of 96%.

Data set [9] deals with Leptosphaeria nodorum. Description: In vivo preventive test on Leptosphaeria nodorum (wheat). As to conditions: preventive spray, 500 ppm of active ingredient, evaluated 7-9 days after inoculation. How it is done:
as §1, with “sprayed with a preparation of” for “sprayed with the preparation of”, “suspension of Leptosphaeria nodorum. The plants” for “suspension of Pyrenophora teres. The plants”, “of approximately 22° C. and” for “of approximately 20° C. and”, “of approximately 90%.” for “of approximately 80%.”

In data set [10] the test system is Alternaria solani. As to the kind of experiment: In vivo preventive test on Alternaria solani (tomato). As to conditions: preventive spray, 500 ppm of active ingredient, evaluated 7 days after inoculation. How it is done:
as §2, with “Alternaria solani.” for “Botrytis cinerea.”, “one day” for “two days”, “20°” for “14°”

`C[Si](C)(CNC(=O)c1cccnc1C(F)(F)F)c1ccccc1` [Example 2]: the Efficacy worked out at 83% in data set [1], 100% in data set [2], 88% in data set [3] and 100% in data set [4]. Moreover, in data set [5], the logP came out at 2.92.
For the molecule `CCc1ccccc1[Si](C)(C)CN(C(=O)c1cccnc1C(F)(F)F)C1CC1` [Example 20], the Efficacy was determined as 100% in [1]; 100% in data set [6]; 93% in [2]; 88% in data set [3]; 75% in data set [7]. Moreover, the logP in data set [5] is on record as 4.51.
`C[Si](C)(CN(C(=O)c1nccnc1C(F)(F)F)C1CC1)c1ccccc1Cl` [Example 26]: the Efficacy in data set [1] is recorded as 93%; in data set [6], 95%; in data set [2] it was 100%; in data set [3] it was 92%; in data set [8], 99%; in data set [9], 80%. In data set [5], this molecule came in with a logP of 4.56.
Consider `C[Si](C)(CN(C(=O)c1nccnc1C(F)(F)F)C1CC1)c1cccc(Cl)c1` [Example 32], for which the Efficacy in [10] was 89%; in [6], 95%; in [8], 94%; in data set [9] it was 90%. Moreover, the logP in data set [5] was determined as 4.56.
For `C[Si](C)(CN(C(=O)c1cccnc1C(F)F)C1CC1)c1cccc(Cl)c1` [Example 34], the Efficacy in data set [10] turned out to be 89%; in data set [6] it was 100%; in [8] it was 85%; in data set [9], 80%. Besides, the logP in [5] was 3.87.
`CC[Si](C)(CN(C(=O)c1nccnc1C(F)(F)F)C1CC1)c1ccccc1Cl` (stereo not drawn) [Example 44]: the Efficacy in data set [1] came to 94%; in data set [6], 93%; in [2] it was 86%; in [3], 75%; in data set [7] it was 75%. The logP in data set [5] was determined as 4.95.
With `C[Si](C)(CN(C(=O)c1cccnc1C(F)(F)F)C1CC1)c1cc(F)ccc1Cl` [Example 48], the Efficacy came out at 98% in data set [1]; 97% in data set [6]; 93% in data set [2]; 88% in data set [3]; 75% in data set [7]. Besides, the logP in data set [5] came out at 4.34.
As for `C[Si](C)(CN(C(=O)c1nccnc1C(F)(F)F)C1CC1)c1cccc2ccccc12` [Example 72], the Efficacy in data set [10] is 89%; in [6], 95%; in [9] it was 80%. In data set [5], the logP was determined as 4.77.
The matching figures for `C[Si](C)(CN(C(=O)c1cccnc1C(F)F)C1CC1)c1cccc2ccccc12` [Example 74]: 78%, 95%, 70% and 4.04.
Consider `C[Si](C)(CN(C(=O)c1nccnc1C(F)(F)F)C1CC1)c1ccc2ccccc2c1` [Example 77], for which the Efficacy in data set [10] turned out to be 78%; in data set [6] it was 100%; in data set [8], 95%; in [9], 95%. In addition, in [5], the logP was 4.80.
For the molecule `C[Si](C)(CN(C(=O)c1cccnc1C(F)F)C1CC1)c1ccc2ccccc2c1` [Example 79], the Efficacy in data set [10] came out at 89%; in data set [6] it was 95%; in data set [8] it was 70%; in data set [9] it was 90%. In data set [5], this molecule displayed a logP of 4.11.
Turning to `C[Si](C)(CN(C(=O)c1nccnc1C(F)(F)F)C1CC1)c1ccsc1` [Example 86], the Efficacy turned out to be 75% in [10], 90% in data set [6] and 80% in [8]. Further, in data set [5], the logP worked out at 3.94.
Regarding `C[Si](C)(Cc1ccccc1)CN(C(=O)c1cccnc1C(F)F)C1CC1` [Example 92], the Efficacy in data set [10] is given as 78%; in data set [6], 90%; in data set [8], 98%; in data set [9] it was 80%. Moreover, the logP in data set [5] is on record as 3.80.
The matching figures for `C[Si](C)(Cc1ccccc1)CN(C(=O)c1nccnc1C(F)(F)F)C1CC1` [Example 93]: 75%, 70%, 100%, 80% and 4.44.
Take `C[Si](C)(Cc1ccccc1Cl)CN(C(=O)c1nccnc1C(F)(F)F)C1CC1` [Example 99]: the Efficacy in [6] and in data set [9] was 70% in each case. Moreover, the logP in [5] is listed as 4.82.
For `C[Si](C)(Cc1cccc(Cl)c1)CN(C(=O)c1nccnc1C(F)(F)F)C1CC1` [Example 105], the Efficacy in [6] worked out at 70%; in data set [8] it was 93%. In data set [5], the logP came out at 4.82.
